Results on 40 compounds are retold here after patent publication US12358915B2, “METTL3 inhibitory compounds” (STORM THERAPEUTICS LTD., priority 2019, dated 2025).

Counter-ions that a name gives are not always drawn.

T1 sequence (Q86U44 whole entry): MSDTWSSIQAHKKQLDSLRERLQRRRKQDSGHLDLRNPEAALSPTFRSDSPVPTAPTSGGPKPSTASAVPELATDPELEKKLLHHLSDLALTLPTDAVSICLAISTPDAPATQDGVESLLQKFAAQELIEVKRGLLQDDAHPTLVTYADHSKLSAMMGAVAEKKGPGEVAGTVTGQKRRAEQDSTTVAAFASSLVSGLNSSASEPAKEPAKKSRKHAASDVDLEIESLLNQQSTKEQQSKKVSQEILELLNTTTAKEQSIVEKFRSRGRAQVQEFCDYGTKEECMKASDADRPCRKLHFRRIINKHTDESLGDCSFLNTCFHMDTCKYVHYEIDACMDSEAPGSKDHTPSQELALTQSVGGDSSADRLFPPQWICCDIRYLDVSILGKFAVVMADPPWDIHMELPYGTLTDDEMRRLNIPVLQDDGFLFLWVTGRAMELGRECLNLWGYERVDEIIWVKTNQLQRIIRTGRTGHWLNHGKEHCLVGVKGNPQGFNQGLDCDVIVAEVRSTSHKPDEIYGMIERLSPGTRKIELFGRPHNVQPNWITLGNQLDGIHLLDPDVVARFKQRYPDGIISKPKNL
T1 sequence (Q9HCE5 whole entry partner): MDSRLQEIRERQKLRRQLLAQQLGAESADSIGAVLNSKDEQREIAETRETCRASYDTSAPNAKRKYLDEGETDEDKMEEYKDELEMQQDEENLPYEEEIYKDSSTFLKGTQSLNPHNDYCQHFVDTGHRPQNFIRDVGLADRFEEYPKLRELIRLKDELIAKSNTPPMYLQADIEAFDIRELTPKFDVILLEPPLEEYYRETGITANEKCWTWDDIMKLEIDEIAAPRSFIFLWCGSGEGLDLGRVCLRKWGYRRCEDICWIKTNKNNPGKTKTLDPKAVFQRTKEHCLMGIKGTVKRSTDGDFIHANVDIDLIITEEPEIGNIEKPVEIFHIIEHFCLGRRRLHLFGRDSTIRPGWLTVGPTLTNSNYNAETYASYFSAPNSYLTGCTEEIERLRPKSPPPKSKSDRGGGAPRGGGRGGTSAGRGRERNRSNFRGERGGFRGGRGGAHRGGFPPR

The first assay concerns the target T1, METTL3/14 (Homo sapiens, UniProt Q86U44).
T1 construct: The enzyme used was full-length his-tagged METTL3; His; made in house
As to the kind of experiment: METTL3/14 methyltransferase assay (METTL3_14 RFMS, RapidFire mass spectrometry).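 Also: recombinant His-tagged METTL3 with FLAG-tagged METTL14 from baculovirus, SAH product quantified by mass spectrometry against isotope-labelled internal standards, 60 min at room temperature, scaled between no-RNA and DMSO-only wells.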 The format is biochemical. Particulars: 5 nM METTL3/14, 0.2 μM RNA substrate, 0.5 μM SAM; lower limit of the assay IC50=5 nM; Compounds 1-62; read-out: METTL3_14 RFMS IC50.
As a reminder, the IC50 is the concentration needed to halve the response being measured. In the case of `O=C(NCc1cn2ccc(Br)cc2n1)c1cccc2[nH]ncc12` [Compound 2, N-({7-bromoimidazo[1,2-a]pyridin-2-yl}methyl)-1H-indazole-4-carboxamide], the IC50 was 9.84 µM.
For the compound `O=C(NCc1cn2cc(Br)ccc2n1)c1cccc2[nH]ncc12` [Compound 3, N-({6-bromoimidazo[1,2-a]pyridin-2-yl}methyl)-1H-indazole-4-carboxamide], the IC50 is 4.66 µM.
For `O=C(NCc1cn2cc(Cl)ccc2n1)c1cccc2[nH]ncc12` [Compound 4, N-({6-chloroimidazo[1,2-a]pyridin-2-yl}methyl)-1H-indazole-4-carboxamide], the IC50 is 6.07 µM.
Consider `O=C(NCc1cn2ccc(F)cc2n1)c1cccc2[nH]ncc12` [Compound 5, N-({7-fluoroimidazo[1,2-a]pyridin-2-yl}methyl)-1H-indazole-4-carboxamide], for which the IC50 was 9.45 µM.
As to `O=C(NCc1cn2cc(F)ccc2n1)c1cccc2[nH]ncc12` [Compound 6, N-({6-fluoroimidazo[1,2-a]pyridin-2-yl}methyl)-1H-indazole-4-carboxamide], the IC50 is 9.12 µM.
Same read-out and setting: next, `COc1ccn2cc(CNC(=O)c3cccc4[nH]ncc34)nc2c1` [Compound 7, N-({7-methoxyimidazo[1,2-a]pyridin-2-yl}methyl)-1H-indazole-4-carboxamide]: 2.67 µM; `Cc1ccc2nc(CNC(=O)c3cc(-c4ccn[nH]4)cc4[nH]ncc34)cn2c1` [Compound 8, N-({6-methylimidazo[1,2-a]pyridin-2-yl}methyl)-6-(1H-pyrazol-5-yl)-1H-indazole-4-carboxamide]: 4.56 µM.
For `Cc1ccc2nc(CNC(=O)c3cc(Br)cc4[nH]ncc34)cn2c1` [Compound 10, 6-bromo-N-({6-methylimidazo[1,2-a]pyridin-2-yl}methyl)-1H-indazole-4-carboxamide], the 50% inhibitory concentration (IC50) stood at 1.61 µM.
`Cc1ccn2cc(CNC(=O)c3cc(Br)cc4[nH]ncc34)nc2c1` [Compound 11, 6-bromo-N-({7-methylimidazo[1,2-a]pyridin-2-yl}methyl)-1H-indazole-4-carboxamide]: the IC50 came to 4.1 µM.
Consider `Cc1ccc2nc(CNC(=O)c3cc(=O)c4ccccc4o3)cn2c1` [Compound 12, N-({6-methylimidazo[1,2-a]pyridin-2-yl}methyl)-4-oxo-4H-chromene-2-carboxamide], for which the IC50 is 1.41 µM.
As to `O=C(NCc1cn2ccccc2n1)c1cc(=O)c2ccccc2o1` [Compound 13], the IC50 turned out to be 4.18 µM.
Regarding `Cc1ccc2nc(CNC(=O)c3cc(=O)n4ccccc4n3)cn2c1` [Compound 15, N-({6-methylimidazo[1,2-a]pyridin-2-yl}methyl)-4-oxo-4H-pyrido[1,2-a]pyrimidine-2-carboxamide], the IC50 worked out at 0.536 µM.
Take `Cc1ccn2cc(CNC(=O)c3cc(=O)n4ccccc4n3)nc2c1` [Compound 17, N-({7-methylimidazo[1,2-a]pyridin-2-yl}methyl)-4-oxo-4H-pyrido[1,2-a]pyrimidine-2-carboxamide]: the IC50 stood at 2.24 µM.
Take `N#Cc1ccc2nc(CNC(=O)c3cc(=O)n4ccccc4n3)cn2c1` [Compound 18, N-({6-cyanoimidazo[1,2-a]pyridin-2-yl}methyl)-4-oxo-4H-pyrido[1,2-a]pyrimidine-2-carboxamide]: the IC50 was 1.86 µM.
Take `COc1ccn2c(=O)cc(C(=O)NCc3cn4cc(C)ccc4n3)nc2c1` [Compound 19, 8-methoxy-N-({6-methylimidazo[1,2-a]pyridin-2-yl}methyl)-4-oxo-4H-pyrido[1,2-a]pyrimidine-2-carboxamide]: the IC50 was found to be 2.6 µM.
With `Cc1ccc2nc(CNC(=O)c3ccc4[nH]ncc4c3)cn2c1` [Compound 20, N-({6-methylimidazo[1,2-a]pyridin-2-yl}methyl)-1H-indazole-5-carboxamide], the IC50 was 8.41 µM.
Consider `Cc1ccc2nc(CNC(=O)c3cc(=O)n4cc(Cl)ccc4n3)cn2c1` [Compound 21, 7-chloro-N-({6-methylimidazo[1,2-a]pyridin-2-yl}methyl)-4-oxo-4H-pyrido[1,2-a]pyrimidine-2-carboxamide], for which the IC50 was 3.06 µM.
As to `O=C(NCc1cn2cc(F)ccc2n1)c1cc(=O)n2ccccc2n1` [Compound 22, N-({6-fluoroimidazo[1,2-a]pyridin-2-yl}methyl)-4-oxo-4H-pyrido[1,2-a]pyrimidine-2-carboxamide], the IC50 is 2.21 µM.
For `O=C(NCc1cn2cc(Br)ccc2n1)c1cc(=O)n2ccccc2n1` [Compound 23, N-({6-bromoimidazo[1,2-a]pyridin-2-yl}methyl)-4-oxo-4H-pyrido[1,2-a]pyrimidine-2-carboxamide], the IC50 came out at 1.79 µM.
`COc1ccc2nc(CNC(=O)c3cc(=O)n4ccccc4n3)cn2c1` [Compound 24, N-({6-methoxyimidazo[1,2-a]pyridin-2-yl}methyl)-4-oxo-4H-pyrido[1,2-a]pyrimidine-2-carboxamide]: the IC50 is 6.77 µM.
Regarding `COc1ccn2cc(CNC(=O)c3cc(=O)n4ccccc4n3)nc2c1` [Compound 25, N-({7-methoxyimidazo[1,2-a]pyridin-2-yl}methyl)-4-oxo-4H-pyrido[1,2-a]pyrimidine-2-carboxamide], the IC50 worked out at 0.543 µM.
Turning to `O=C(NCc1cn2ccccc2n1)c1cc(=O)n2ccccc2n1` [Compound 26], the IC50 came out at 2.06 µM.
Consider `Cc1cccn2cc(CNC(=O)c3cc(=O)n4ccccc4n3)nc12` [Compound 27, N-({8-methylimidazo[1,2-a]pyridin-2-yl}methyl)-4-oxo-4H-pyrido[1,2-a]pyrimidine-2-carboxamide], for which the IC50 was found to be 6.61 µM.
Take `O=C(NCc1cn2ccc(Br)cc2n1)c1cc(=O)n2ccccc2n1` [Compound 29, N-({7-bromoimidazo[1,2-a]pyridin-2-yl}methyl)-4-oxo-4H-pyrido[1,2-a]pyrimidine-2-carboxamide]: the IC50 is 2.78 µM.
The same measure, in the same setting: next, `Cc1ccc2nc(C(CO)NC(=O)c3cccc4[nH]ncc34)cn2c1` (centres unmarked) [Compound 30, N-(2-hydroxy-1-{6-methylimidazo[1,2-a]pyridin-2-yl}ethyl)-1H-indazole-4-carboxamide]: 8.52 µM; `O=C(c1cccc2[nH]ncc12)N1CC=C(c2cn3ccccc3n2)C1` [Compound 31, 4-(3-{imidazo[1,2-a]pyridin-2-yl}-2,5-dihydro-1H-pyrrole-1-carbonyl)-1H-indazole]: 9.35 µM.
`O=C(NCc1cn2cc(NCc3cccnc3)ccc2n1)c1cccc2[nH]ncc12` [Compound 32, N-[(6-{[(pyridin-3-yl)methyl]amino}imidazo[1,2-a]pyridin-2-yl)methyl]-1H-indazole-4-carboxamide]: the IC50 stood at 7.34 µM.
For `Cn1cnc(CNc2ccc3nc(CNC(=O)c4cccc5[nH]ncc45)cn3c2)c1` [Compound 33, N-[(6-{[(1-methyl-1H-imidazol-4-yl)methyl]amino}imidazo[1,2a]pyridin-2-yl)methyl]-1H-indazole-4-carboxamide], the IC50 stood at 5.87 µM.
As for `COc1cccc(-c2ccc3nc(CNC(=O)c4cccc5[nH]ncc45)cn3c2)c1` [Compound 34, N-{[6-(3-methoxyphenyl)imidazo[1,2-a]pyridin-2-yl]methyl}-1H-indazole-4-carboxamide], the half-maximal inhibitory concentration (IC50) is 5.35 µM.
On the same count and under the same terms, next, `O=C(NCc1cn2cc(-c3ccn[nH]3)ccc2n1)c1cccc2[nH]ncc12` [Compound 35, N-{[6-(1H-pyrazol-5-yl)imidazo[1,2-a]pyridin-2-yl]methyl}-1H-indazole-4-carboxamide]: 15.8 µM.
Same read-out and setting: next, `O=C(NCc1cn2cc(-c3cccc(Cl)c3)ccc2n1)c1cccc2[nH]ncc12` [Compound 36]: 3.91 µM.
Turning to `O=C(NCc1cn2cc(Nc3cccnc3)ccc2n1)c1cccc2[nH]ncc12` [Compound 37, N-({6-[(pyridin-3-yl)amino]imidazo[1,2-a]pyridin-2-yl}methyl)-1H-indazole-4-carboxamide], the IC50 was found to be 4.74 µM.
As to `O=C(NCc1cn2cc(CN3CCNCC3)ccc2n1)c1cccc2[nH]ncc12` [Compound 38, N-({6-[(piperazin-1-yl)methyl]imidazo[1,2-a]pyridin-2-yl}methyl)-1H-indazole-4-carboxamide], the IC50 was determined as 5.44 µM.
Same read-out and setting: next, `NCc1ccc2nc(CNC(=O)c3cccc4[nH]ncc34)cn2c1` [Compound 39, N-{[6-(aminomethyl)imidazo[1,2-a]pyridin-2-yl]methyl}-1H-indazole-4-carboxamide]: 1.47 µM; `CC(=O)NCc1ccc2nc(CNC(=O)c3cccc4[nH]ncc34)cn2c1` [Compound 40, N-{[6-(acetamidomethyl)imidazo[1,2-a]pyridin-2-yl]methyl}-1H-indazole-4-carboxamide]: 7.39 µM; `Cc1ccc2nc(COC(=O)c3cccc4[nH]ncc34)cn2c1` [Compound 41, {6-methylimidazo[1,2-a]pyridin-2-yl}methyl 1H-indazole-4-carboxylate hydrochloride]: 1.34 µM.
Same read-out and setting: next, `O=C(NCc1cn2cc(CO)ccc2n1)c1cccc2[nH]ncc12` [Compound 42]: 6.26 µM; `O=C(NCc1cn2cc(O)ccc2n1)c1cccc2[nH]ncc12` [Compound 43, N-({6-hydroxyimidazo[1,2-a]pyridin-2-yl}methyl)-1H-indazole-4-carboxamide]: 1.29 µM.

Still in this assay, the particulars now being: primary enzyme screen, inhibition of RNA methyltransferase activity; lower limit of the assay is IC50=5 nM; read-out: IC50.
`Cc1ccc2nc(CNC(=O)c3cc(=O)n4ccccc4n3)cn2c1` [Compound 15, N-({6-methylimidazo[1,2-a]pyridin-2-yl}methyl)-4-oxo-4H-pyrido[1,2-a]pyrimidine-2-carboxamide]: the IC50 was 0.52 µM.

Still in this assay, the particulars now being: read-out: METTL3_14 RFMS IC50.
Turning to `O=C(NCc1cn2cc([C@H]3COC[C@@H](C4CCCCC4)N3)ccc2n1)c1cccc2[nH]ncc12` (racemic) [Example 231, N-({6-[(3S,5R)-5-cyclohexylmorpholin-3-yl]imidazo[1,2-a]pyridin-2-yl}methyl)-1H-indazole-4-carboxamide], the IC50 worked out at 1.22 µM.
With `C#Cc1cc(C(=O)NCc2cn3cc(C)ccc3n2)c2cn[nH]c2c1` [Compound 14, 6-ethynyl-N-({6-methylimidazo[1,2-a]pyridin-2-yl}methyl)-1H-indazole-4-carboxamide], the IC50 is 5.9 µM.
